Assay results from patent US8252793B2, “Bradykinin receptor agonists and uses thereof to treat ocular hypertension and glaucoma” (Alcon Research, Ltd., priority 2010, dated 2012).
pKi: −log10 of the molar value.

Columns and labels:
[1] = target: T1, BK receptors in human ciliary muscle cells (h-CM) (Homo sapiens, UniProt P30411); assay: Functional assay measuring [Ca2+]i mobilization (FLIPR) in h-CM cells; type: cell-based; details: class symbols (in μM), read-out: CaM (EC50)
T1 construct: h-CM cells expressing BK receptors were seeded; endogenous in cells; host or cells: human ciliary muscle (h-CM) cells
T1 sequence (P30411 1-391): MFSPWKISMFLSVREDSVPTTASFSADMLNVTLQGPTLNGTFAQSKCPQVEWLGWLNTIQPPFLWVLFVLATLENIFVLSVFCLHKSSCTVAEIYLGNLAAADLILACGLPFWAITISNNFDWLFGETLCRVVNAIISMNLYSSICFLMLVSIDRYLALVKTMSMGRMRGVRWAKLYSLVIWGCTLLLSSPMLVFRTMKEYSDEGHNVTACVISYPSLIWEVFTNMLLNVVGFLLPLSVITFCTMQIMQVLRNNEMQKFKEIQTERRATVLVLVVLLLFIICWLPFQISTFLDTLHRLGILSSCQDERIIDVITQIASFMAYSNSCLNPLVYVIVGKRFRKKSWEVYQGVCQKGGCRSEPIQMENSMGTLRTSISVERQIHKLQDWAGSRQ
Summary of the method: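 Human ciliary muscle cells loaded 1 h at 23 °C with FLIPR calcium dye in HBSS, 20 mM HEPES, 2.5 mM probenecid, pH 7.4. EC50 by 4-parameter fit.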

[2] = tested on: primary human ciliary muscle cells (h-CM); assay: Total prostaglandin (PG) release from primary h-CM cells (EIA); type: cell-based; details: Homo sapiens, 1 h, 1 hour at 37° C., class symbols (in μM)
Summary of the method: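 Confluent primary h-CM cells, serum-starved (0.8% FBS) 24 h, were exposed to a 9-point concentration series (0.1 nM-10 μM) of bradykinin or BK agonist for 1 hour at 37° C. Total PG released was then quantified by EIA.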

[3] = target: T2, recombinant human bradykinin B2 receptor (Homo sapiens, UniProt P30411); assay: [3H]-BK competition radioligand binding to human cloned B2 receptor (CHO cell membranes); details: 0.2 nM [3H]-bradykinin, CHO membranes, 60 min 23° C.; mean ± SEM or single value; Ki from IC50 by Cheng-Prusoff; read-out: [3H]-BK Binding to Human Cloned B2 Receptor (Ki)
T2 construct: expressed in transfected cells; host or cells: Chinese hamster ovary (CHO) cells, membrane homogenates
T2 sequence (P30411 1-391): T1 sequence (P30411 1-391)

Structure (SMILES) | EC50 [1] [µM] | EC50 [2] [µM] | pKi [3]
COc1nc2c(OCc3c(Cl)ccc(N(C)C(=O)CNC(=O)CCc4ccc(NC(=O)CN)nc4)c3Cl)cccc2n1Cc1ccccn1 [Compound 74, 3-(6-(2-aminoacetamido)pyridin-3-yl)-N-(2-((2,4-dichloro-3-(((2-methoxy-1-(pyridin-2-ylmethyl)-1H-benzo[d]imidazol-4-yl)oxy)methyl)phenyl)(methyl)amino)-2-oxoethyl)propanamide] | < 0.1 | 0.1 to 1 | 6.42
COc1nc2c(OCc3c(Cl)ccc(N(C)C(=O)CNC(=O)COc4cnc(NC(C)=O)nc4)c3Cl)cccc2n1Cc1ccccn1 [Compound 75] | < 0.1 | 0.1 to 1 | 6.26
COc1nc2c(OCc3c(Cl)ccc(N(C)C(=O)CNC(=O)CCC4CN=C(N[N+](=O)[O-])NC4)c3Cl)cccc2n1Cc1ccccn1 (stereo not drawn) [Compound 76] | < 0.1 | > 1 | 6.63
COc1nc2c(OCc3c(Cl)ccc(N(C)C(=O)CNC(=O)CCc4cnc(NC(C)=O)nc4)c3Cl)cccc2n1Cc1ccccn1 [Compound 77] | < 0.1 | 0.1 to 1 | 6.64
CNC(=O)N1CCOC(CC(=O)NCC(=O)N(C)c2ccc(Cl)c(COc3cccc4c3nc(OC)n4Cc3ccccn3)c2Cl)C1 (stereo not drawn) [Compound 79] | 0.1 to 1 | > 1 | 6.07
COc1nc2c(OCc3c(Cl)ccc(N(C)C(=O)CNC(=O)CN4CCOC(C(=O)NCCO)C4)c3Cl)cccc2n1Cc1ccccn1 (stereo not drawn) [Compound 80] | < 0.1 | 0.1 to 1 | 6.55
CNC(=O)C1CNCC(CC(=O)NCC(=O)N(C)c2ccc(Cl)c(COc3cccc4c3nc(OC)n4Cc3ccccn3)c2Cl)C1 (stereo not drawn) [Compound 81] | < 0.1 | > 1 | 6.97
CNC(=O)c1ccc(CCC(=O)NCC(=O)N(C)c2ccc(Cl)c(COc3cccc4c3nc(OC)n4Cc3nccn3C)c2Cl)cc1 [Compound 82] | < 0.1 | > 1 | 6.69
CNCc1ccc(CCC(=O)NCC(=O)N(C)c2ccc(Cl)c(COc3cccc4c3nc(OC)n4Cc3ccccn3)c2Cl)cc1 [Compound 83] | < 0.1 | > 1 | 6.48
COc1nc2c(OCc3c(Cl)ccc(N(C)C(=O)CNC(=O)CN4CCO[C@@H](C(=O)NC5CC5)C4)c3Cl)cccc2n1Cc1ccccn1 [Compound 84] | < 0.1 | < 0.1 | 7.11
